Measurements published in article PMC5085761 (International Journal of Molecular Sciences, 2016).

Key:
LLC-PK1 monolayer model = experiment: Inhibition study of [14C]fluciclovine apical-to-basal transport, LLC-PK1 monolayer model; conditions: 1 mM inhibitor, 10 µM [14C]fluciclovine
Excerpt: Natural and synthetic amino acids were used as inhibitors: MeAIB (2-(methylamino)-isobutyric acid, for system A in the presence of Na^+); Thr (L-threonine, for system ASC in the presence of Na^+); and BCH (2-aminobicyclo[2,2,1]heptane-2-carboxylic acid, for system L in the absence of Na^+).

LLC-PK1 monolayers = experiment: Apical-to-basal transport through LLC-PK1 monolayers; format: in vitro ADME, pig
Experimental: The LLC-PK1 cell line was purchased from DS Pharma Biomedical (Osaka, Japan). Cells were maintained in Dulbecco’s modified Eagle’s medium (DMEM; Life Technologies Japan, Tokyo, Japan) supplemented with 10% (v/v) fetal bovine serum (American Type Culture Collection, Manassas, VA, USA) and antibiotics (100 U/mL penicillin and 100 μg/mL streptomycin (Life Technologies Japan)). Cells were cultured at 37 °C under an atmosphere containing 5% CO2 before the start of the experiments.
Cells were seeded at a density of 1.5 × 10^6 cells/0.25 mL on the membrane of cell culture inserts fitting 24-well plates (upper compartment, apical side; Becton Dickinson, Franklin Lakes, NJ, USA). Flat-bottom 24-well tissue culture plates (Becton Dickinson) containing 0.95 mL of culture medium per well were used as the basolateral side (bottom compartment).
LLC-PK1 monolayer formation was monitored by the measurement of TER using an EVOM-2 and Endohm24 (World Precision Instruments, Inc., Sarasota, FL, USA) according to the manufacturer’s protocol. […] [^3H]Mannitol transport was measured as described in Section 4.3 for the validation of tight junction formation because mannitol passes through the cell monolayers via the paracellular route.
Experimental procedures were performed as described previously with minor modifications. After cultivation as described above, the culture media in both compartments were replaced with Na^+ buffer (137 mM NaCl, 2.7 mM KCl, 8 mM Na2HPO4, 1.5 mM KH2PO4, 5.6 mM D-glucose, 0.9 mM CaCl2, and 0.5 mM MgCl2; pH 7.4 at 37 °C), and the cells were preincubated for 10 min at 37 °C under normal air conditions. After the buffer was removed from each compartment, the permeability experiments were started with the addition of 0.25 mL of Na^+ buffer containing radiolabeled tracers (final concentration: 81 nM for [^3H]mannitol and 10 μM for the ^14C-labeled amino acid tracers) in each upper compartment, and 0.95 mL of Na^+ buffer in each bottom compartment. The inserts were placed into new 24-well culture plates containing 0.95 mL/well of Na^+ buffer after 5, 15, 30, 60, and 90 min of incubation. Subsequently, the cells were incubated up to 120 min at 37 °C under normal air conditions.
The apical-to-basal permeability was measured by sampling an aliquot of the buffer from the upper and bottom compartment at the indicated times. To evaluate intracellular accumulation, the cells were lysed in 0.5 mL of 0.1N NaOH at room temperature following rapid washing of the cells with ice-cold Na^+ buffer. The radioactivity of each aliquot was measured with an LSC6000SC (Beckman Coulter, Inc., Brea, CA, USA) or Tri-Carb 2910TR liquid scintillation counter (PerkinElmer) using Ultima Gold (PerkinElmer).

[1] = test system: alanine-serine-cysteine transporter 2 (ASCT2); set-up: method as in PMID 23647854; conditions: cited from earlier work
[2] = test system: sodium-coupled neutral amino acid transporter 2 (SNAT2); set-up: method as in PMID 23647854; conditions: cited from earlier work
[3] = test system: L-type amino acid transporter 1 (LAT1); set-up: method as in PMID 23647854; conditions: cited from earlier work
[18F]fluciclovine uptake = test system: [18F]fluciclovine uptake; set-up: method as in PMID 21536930; conditions: cited from earlier work
[4] = substrate: N[C@]1(C(=O)O)C[C@@H](F)C1; experiment: cells, lysate or membranes named; conditions: not significant vs control vesicles, pH 7.0

Molecule: NC1(C(=O)O)CC2CCC1C2 (stereo not drawn) [BCH, 2-aminobicyclo[2,2,1]heptane-2-carboxylic acid]
- inhibition of [14C]fluciclovine apical-to-basal transport (LLC-PK1 monolayer model; Na+-free buffer): no significant inhibition

Molecule: CNC(C)(C)C(=O)O [MeAIB, 2-(methylamino)-isobutyric acid]
- inhibition of [14C]fluciclovine apical-to-basal transport (LLC-PK1 monolayer model; Na+ buffer): no significant inhibition

Molecule: C[C@@H](O)[C@H](N)C(=O)O [Thr, L-threonine]
- inhibition of [14C]fluciclovine apical-to-basal transport (LLC-PK1 monolayer model; Na+ buffer): significant inhibition

Molecule: OC[C@@H](O)[C@@H](O)[C@H](O)[C@H](O)CO [[^3H]mannitol, D-[1-^3H(N)]mannitol]
- mean percentage of [3H]mannitol permeation (LLC-PK1 monolayers; day 1 after seeding): 19.3%
- mean percentage of [3H]mannitol permeation (LLC-PK1 monolayers; day 4 after seeding): 1.23%
- mean percentage of [3H]mannitol permeation (LLC-PK1 monolayers; day 7 after seeding): 2.29%

Molecule: N[C@]1(C(=O)O)C[C@@H](F)C1 [[^18F]fluciclovine, trans-1-amino-3-[^18F]fluorocyclobutanecarboxylic acid]
- Km [1]: 92 µM
- Km [2]: 222 µM
- Km [3]: 230 µM

Molecule: Nc1ccc(C(=O)NCC(=O)O)cc1 [p-aminohippurate]
- inhibition of [18F]fluciclovine uptake ([18F]fluciclovine uptake): approximately 5%

B1: human BCRP (Homo sapiens) (protein)
chain: MSSSNVEVFIPVSQGNTNGFPATASNDLKAFTEGAVLSFHNICYRVKLKSGFLPCRKPVEKEILSNINGIMKPGLNAILGPTGGGKSSLLDVLAARKDPSGLSGDVLINGAPRPANFKCNSGYVVQDDVVMGTLTVRENLQFSAALRLATTMTNHEKNERINRVIQELGLDKVADSKVGTQFIRGVSGGERKRTSIGMELITDPSILFLDEPTTGLDSSTANAVLLLLKRMSKQGRTIIFSIHQPRYSIFKLFDSLTLLASGRLMFHGPAQEALGYFESAGYHCEAYNNPADFFLDIINGDSTAVALNREEDFKATEIIEPSKQDKPLIEKLAEIYVNSSFYKETKAELHQLSGGEKKKKITVFKEISYTTSFCHQLRWVSKRSFKNLLGNPQASIAQIIVTVVLGLVIGAIYFGLKNDSTGIQNRAGVLFFLTTNQCFSSVSAVELFVVEKKLFIHEYISGYYRVSSYFLGKLLSDLLPMRMLPSIIFTCIVYFMLGLKPKADAFFVMMFTLMMVAYSASSMALAIAAGQSVVSVATLLMTICFVFMMIFSGLLVNLTTIASWLSWLQYFSIPRYGFTALQHNEFLGQNFCPGLNATGNNPCNYATCTGEEYLVKQGIDLSPWGLWKNHVALACMIVIFLTIAYLKLLFLKKYS
- Km ([4]; other: BCRP vesicles): 1340 ± 1450 µM

B2: human MRP4 (Homo sapiens) (protein)
chain: MLPVYQEVKPNPLQDANLCSRVFFWWLNPLFKIGHKRRLEEDDMYSVLPEDRSQHLGEELQGFWDKEVLRAENDAQKPSLTRAIIKCYWKSYLVLGIFTLIEESAKVIQPIFLGKIINYFENYDPMDSVALNTAYAYATVLTFCTLILAILHHLYFYHVQCAGMRLRVAMCHMIYRKALRLSNMAMGKTTTGQIVNLLSNDVNKFDQVTVFLHFLWAGPLQAIAVTALLWMEIGISCLAGMAVLIILLPLQSCFGKLFSSLRSKTATFTDARIRTMNEVITGIRIIKMYAWEKSFSNLITNLRKKEISKILRSSCLRGMNLASFFSASKIIVFVTFTTYVLLGSVITASRVFVAVTLYGAVRLTVTLFFPSAIERVSEAIVSIRRIQTFLLLDEISQRNRQLPSDGKKMVHVQDFTAFWDKASETPTLQGLSFTVRPGELLAVVGPVGAGKSSLLSAVLGELAPSHGLVSVHGRIAYVSQQPWVFSGTLRSNILFGKKYEKERYEKVIKACALKKDLQLLEDGDLTVIGDRGTTLSGGQKARVNLARAVYQDADIYLLDDPLSAVDAEVSRHLFELCICQILHEKITILVTHQLQYLKAASQILILKDGKMVQKGTYTEFLKSGIDFGSLLKKDNEESEQPPVPGTPTLRNRTFSESSVWSQQSSRPSLKDGALESQDTENVPVTLSEENRSEGKVGFQAYKNYFRAGAHWIVFIFLILLNTAAQVAYVLQDWWLSYWANKQSMLNVTVNGGGNVTEKLDLNWYLGIYSGLTVATVLFGIARSLLVFYVLVNSSQTLHNKMFESILKAPVLFFDRNPIGRILNRFSKDIGHLDDLLPLTFLDFIQTLLQVVGVVSVAVAVIPWIAIPLVPLGIIFIFLRRYFLETSRDVKRLESTTRSPVFSHLSSSLQGLWTIRAYKAEERCQELFDAHQDLHSEAWFLFLTTSRWFAVRLDAICAMFVIIVAFGSLILAKTLDAGQVGLALSYALTLMGMFQWCVRQSAEVENMMISVERVIEYTDLEKEAPWEYQKRPPPAWPHEGVIIFDNVNFMYSPGGPLVLKHLTALIKSQEKVGIVGRTGAGKSSLISALFRLSEPEGKIWIDKILTTEIGLHDLRKKMSIIPQEPVLFTGTMRKNLDPFNEHTDEELWNALQEVQLKETIEDLPGKMDTELAESGSNFSVGQRQLVCLARAILRKNQILIIDEATANVDPRTDELIQKKIREKFAHCTVLTIAHRLNTIIDSDKIMVLDSGRLKEYDEPYVLLQNKESLFYKMVQQLGKAEAAALTETAKQVYFKRNYPHIGHTDHMVTNTSNGQPSTLTIFETAL
- Km ([4]; other: MRP4 vesicles): 15300 ± 44100 µM
